Measurements reported in patent US10499642B2, “Isoxazoline-substituted benzamides and analogues as insecticides” (SYNGENTA PARTICIPATIONS AG, priority 2015, dated 2019).

Key:
Format in all cases: in vivo
[1] = tested on: Spodoptera littoralis; experiment: Spodoptera littoralis (Egyptian cotton leaf worm) cotton leaf disc test; conditions: foliar, 72 h, read-out: control (at least one of mortality, anti-feedant effect, and growth inhibition)
Outline: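 Cotton leaf discs on agar were sprayed with aqueous dilutions of 10′000 ppm DMSO stocks, dried and infested with five L1 larvae. Mortality, anti-feedant effect and growth inhibition were scored against untreated samples 3 days after infestation. Control = any of these higher than untreated.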

[2] = tested on: Plutella xylostella; experiment: Plutella xylostella (diamond back moth) artificial diet test; conditions: 120 h, read-out: effect in at least one of the two categories (mortality or growth inhibition)
Outline: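 Artificial diet treated with aqueous compound solutions made from DMSO stocks, dried, then infested with L2 larvae (10 to 15 per well). Mortality and growth inhibition scored versus untreated controls 5 days after infestation. Application rate 200 ppm.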

[3] = tested on: Diabrotica Balteata; experiment: Diabrotica balteata (corn root worm) maize sprout test; conditions: 96 h, read-out: effect in at least one of the two categories (mortality or growth inhibition)
Outline: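 Maize sprouts on agar were sprayed with aqueous test solutions made from 10′000 ppm DMSO stocks, dried, then infested with 6 to 10 L2 larvae per well. Mortality and growth inhibition versus untreated samples were assessed 4 days after infestation; application rate 200 ppm.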

[4] = tested on: Thrips tabaci; experiment: Thrips tabaci (onion thrips) sunflower leaf disc test; conditions: foliar, 144 h
Experimental: Thrips tabaci (Onion Thrips):
(§1) Sunflower leaf discs were placed on agar in 24-well microtiter plates and sprayed with aqueous test solutions prepared from 10′000 ppm DMSO stock solutions. After drying the leaf discs were infested with a thrips population of mixed ages. The samples were assessed for mortality 6 days after infestation.

[5] = tested on: Tetranychus urticae; experiment: Tetranychus urticae (two-spotted spider mite) bean leaf disc test; conditions: foliar, 192 h
Experimental: Tetranychus urticae (Two-Spotted Spider Mite):
as §1, with “Bean” for “Sunflower”, “discs” for “discs were placed”, “were” for “and”, “mite” for “thrips”, “on mixed population (mobile stages) 8” for “6”

[6] = tested on: Myzus persicae; experiment: Myzus persicae (green peach aphid) sunflower leaf disc test; conditions: foliar, 144 h
Experimental: Myzus persicae (Green Peach Aphid):
Sunflower leaf discs were placed on agar in a 24-well microtiter plate and sprayed with test solutions at an application rate of 200 ppm. After drying, the leaf discs were infested with an aphid population of mixed ages. After an incubation period of 6 days after treatment, samples were checked for mortality. The following compounds gave at least 80% mortality of Myzus persicae: […]

Cc1cc(C2=NO[C@@](c3cc(Cl)c(F)c(Cl)c3)(C(F)(F)F)C2)ccc1C(=O)NC1CC(OC(C)C)=NO1 (stereo partly drawn) [Compound A077]
≥ 80%: percent control (mortality, anti-feedant effect or growth inhibition) at 200 ppm [1] | percent effect (mortality or growth inhibition) at 200 ppm [2] | percent effect (mortality or growth inhibition) at 200 ppm [3] | mortality at 200 ppm [4] | mortality at 200 ppm [5] | mortality at 200 ppm [6]

Cc1cc(C2=NO[C@@](c3cc(Cl)c(F)c(Cl)c3)(C(F)(F)F)C2)ccc1C(=O)NC1CC(OC2CC2)=NO1 (stereo partly drawn) [Compound A078]
≥ 80%: percent control (mortality, anti-feedant effect or growth inhibition) at 200 ppm [1] | percent effect (mortality or growth inhibition) at 200 ppm [2] | percent effect (mortality or growth inhibition) at 200 ppm [3] | mortality at 200 ppm [4] | mortality at 200 ppm [5] | mortality at 200 ppm [6]

Cc1cc(C2=NO[C@@](c3cc(Cl)c(F)c(Cl)c3)(C(F)(F)F)C2)ccc1C(=O)NC1CC(OC2CCC2)=NO1 (stereo partly drawn) [Compound A079]
≥ 80%: percent control (mortality, anti-feedant effect or growth inhibition) at 200 ppm [1] | percent effect (mortality or growth inhibition) at 200 ppm [2] | percent effect (mortality or growth inhibition) at 200 ppm [3] | mortality at 200 ppm [4] | mortality at 200 ppm [5] | mortality at 200 ppm [6]

C=C(C)COC1=NOC(NC(=O)c2ccc(C3=NO[C@@](c4cc(Cl)c(F)c(Cl)c4)(C(F)(F)F)C3)cc2C)C1 (stereo partly drawn) [Compound A080]
≥ 80%: percent control (mortality, anti-feedant effect or growth inhibition) at 200 ppm [1] | percent effect (mortality or growth inhibition) at 200 ppm [2] | percent effect (mortality or growth inhibition) at 200 ppm [3] | mortality at 200 ppm [4] | mortality at 200 ppm [5] | mortality at 200 ppm [6]

C=C(F)COC1=NOC(NC(=O)c2ccc(C3=NO[C@@](c4cc(Cl)c(F)c(Cl)c4)(C(F)(F)F)C3)cc2C)C1 (stereo partly drawn) [Compound A081]
≥ 80%: percent control (mortality, anti-feedant effect or growth inhibition) at 200 ppm [1] | percent effect (mortality or growth inhibition) at 200 ppm [2] | percent effect (mortality or growth inhibition) at 200 ppm [3] | mortality at 200 ppm [4] | mortality at 200 ppm [5] | mortality at 200 ppm [6]

Cc1cc(C2=NO[C@@](c3cc(Cl)c(F)c(Cl)c3)(C(F)(F)F)C2)ccc1C(=O)NC1CC(OC2COC2)=NO1 (stereo partly drawn) [Compound A082]
≥ 80%: percent control (mortality, anti-feedant effect or growth inhibition) at 200 ppm [1] | percent effect (mortality or growth inhibition) at 200 ppm [2] | percent effect (mortality or growth inhibition) at 200 ppm [3] | mortality at 200 ppm [4] | mortality at 200 ppm [5] | mortality at 200 ppm [6]

Cc1cc(C2=NO[C@@](c3cc(Cl)c(F)c(Cl)c3)(C(F)(F)F)C2)ccc1C(=O)NC1CC(OCC2CC2)=NO1 (stereo partly drawn) [Compound A083]
≥ 80%: percent control (mortality, anti-feedant effect or growth inhibition) at 200 ppm [1] | percent effect (mortality or growth inhibition) at 200 ppm [2] | percent effect (mortality or growth inhibition) at 200 ppm [3] | mortality at 200 ppm [4] | mortality at 200 ppm [5] | mortality at 200 ppm [6]

Cc1cc(C2=NO[C@@](c3cc(Cl)c(F)c(Cl)c3)(C(F)(F)F)C2)ccc1C(=O)NC1CC(OC/C=C/C(F)(F)F)=NO1 (stereo partly drawn) [Compound A084, 4-[(5S)-5-(3,5-dichloro-4-fluoro-phenyl)-5-(trifluoromethyl)-4H-isoxazol-3-yl]-2-methyl-N-[3-[(E)-4,4,4-trifluorobut-2-enoxy]-4,5-dihydroisoxazol-5-yl]benzamide]
≥ 80%: percent control (mortality, anti-feedant effect or growth inhibition) at 200 ppm [1] | percent effect (mortality or growth inhibition) at 200 ppm [2] | percent effect (mortality or growth inhibition) at 200 ppm [3] | mortality at 200 ppm [4] | mortality at 200 ppm [5] | mortality at 200 ppm [6]

CC(C)=CCOC1=NOC(NC(=O)c2ccc(C3=NO[C@@](c4cc(Cl)c(F)c(Cl)c4)(C(F)(F)F)C3)cc2C)C1 (stereo partly drawn) [Compound A085]
≥ 80%: percent control (mortality, anti-feedant effect or growth inhibition) at 200 ppm [1] | percent effect (mortality or growth inhibition) at 200 ppm [2] | percent effect (mortality or growth inhibition) at 200 ppm [3] | mortality at 200 ppm [4] | mortality at 200 ppm [5] | mortality at 200 ppm [6]
